The results in this text go back to patent publication US20090280172A1, “GALENIC FORMULATIONS OF ORGANIC COMPOUNDS” (priority 2006, published 2009).

The data set in a line: Bioavailability of transmucosal dosage forms of aliskiren compared with oral formulations. It is filed as in vivo. The conditions noted are these: transmucosal route vs oral formulation e.g. as employed in WO2005/089729.

Consider `COCCCOc1cc(C[C@@H](C[C@H](N)[C@@H](O)C[C@H](C(=O)NCC(C)(C)C(N)=O)C(C)C)C(C)C)ccc1OC` [aliskiren, 2(S),4(S),5(S),7(S)-N-(3-amino-2,2-dimethyl-3-oxopropyl)-2,7-di(1-methylethyl)-4-hydroxy-5-amino-8-[4-methoxy-3-(3-methoxy-propoxy)phenyl]-octanamide], for which the “increase of bioavailability over the bioavailability of an oral formulation” value was “at least three times”.
